Assay [1] concerns human lower urinary tract smooth muscle strips (prostatic/urethral). Nature of the assay: Agonist potency on human lower urinary tract smooth muscle strips (isometric tension, organ bath). It is filed as cell-based. The conditions noted are these: for EC50 / Emax: human LUT strips; for EC50: cocaine 10 μM, corticosterone 10 μM, propanolol 1 μM present, read-out: pEC50 (increase in developed tension) (converted); for Emax: relative to 100 mM potassium chloride, read-out: maximum response equivalent to % of the response to 100 mM potassium chloride. As for the experimental part:
Determinations were made of agonist potency on human LUT and blood vessel smooth muscle. Tissue sources: human lower urinary tract smooth muscle strips (prostatic/urethral) were obtained from patients undergoing transurethral resection of the prostate procedure for benign prostatic hyperplasia. Human mesenteric arteries (500-750 μm internal diameter) were obtained from patients undergoing bowel resection for carcinoma. Tissues were preserved in Krebs-bicarbonate solution at 4° C. from the time of surgery until used in functional experiments within 24 hours. Sections of mesenteric artery (5 mm in length) were set up between stainless steel stirrups after removal of the endothelium by gentle rubbing. Strips of prostatic/urethral smooth muscle (3×10 mm) and the mesenteric arteries were set up under 1 g resting tension in Krebs solution of composition (mM): NaCl 118.4; KCl 4.7; CaCl2 1.9; NaHCO3 25.0; MgSO4 1.2; KH2PO4 1.2; glucose 11.7, gassed with 5% CO2 in O2 and maintained at 37° C. The tension developed by all tissues was measured by means of isometric force transducers (Lectromed UFI 57G sensitivity) and recorded to computer via a Cambridge Electronic Design 1401 analogue to digital converter, using CHART software. Tissues were equilibrated for 60 minutes with several changes of bathing medium prior to starting drug administrations. All experiments were performed in the presence of cocaine (10 μM) and corticosterone (10 μM), to prevent neuronal and extraneuronal uptake of drugs, and propanolol (1 μM), to block B adrenoreceptors. Cumulative concentration-response curves were obtained to 2-[(5-chloro-2-methoxyphenyl)azo]-1H-imidazole, and to noradrenaline for comparison. […] Increases in developed tension to agonist were plotted and individual EC50 values were determined. From these, pEC50 (negative log of the EC50) values were determined for each experiment and where appropriate mean values of these with standard error of the means calculated.

The test system of assay [2] is human mesenteric arteries. Nature of the assay: Agonist potency on human mesenteric artery sections (isometric tension, organ bath). It is filed as cell-based. The conditions noted are these: for EC50 / mean maximum contraction: human mesenteric arteries; for EC50: endothelium removed, cocaine 10 μM, corticosterone 10 μM, propanolol 1 μM present, read-out: pEC50 (increase in developed tension) (converted); for mean maximum contraction: for the imidazole the maximum occurred at 20 micromolar. As for the experimental part:
Determinations were made of agonist potency on human LUT and blood vessel smooth muscle. Tissue sources: human lower urinary tract smooth muscle strips (prostatic/urethral) were obtained from patients undergoing transurethral resection of the prostate procedure for benign prostatic hyperplasia. Human mesenteric arteries (500-750 μm internal diameter) were obtained from patients undergoing bowel resection for carcinoma. Tissues were preserved in Krebs-bicarbonate solution at 4° C. from the time of surgery until used in functional experiments within 24 hours. Sections of mesenteric artery (5 mm in length) were set up between stainless steel stirrups after removal of the endothelium by gentle rubbing. Strips of prostatic/urethral smooth muscle (3×10 mm) and the mesenteric arteries were set up under 1 g resting tension in Krebs solution of composition (mM): NaCl 118.4; KCl 4.7; CaCl2 1.9; NaHCO3 25.0; MgSO4 1.2; KH2PO4 1.2; glucose 11.7, gassed with 5% CO2 in O2 and maintained at 37° C. The tension developed by all tissues was measured by means of isometric force transducers (Lectromed UFI 57G sensitivity) and recorded to computer via a Cambridge Electronic Design 1401 analogue to digital converter, using CHART software. Tissues were equilibrated for 60 minutes with several changes of bathing medium prior to starting drug administrations. All experiments were performed in the presence of cocaine (10 μM) and corticosterone (10 μM), to prevent neuronal and extraneuronal uptake of drugs, and propanolol (1 μM), to block B adrenoreceptors. Cumulative concentration-response curves were obtained to 2-[(5-chloro-2-methoxyphenyl)azo]-1H-imidazole, and to noradrenaline for comparison. For the mesenteric artery preparations following the recording of the final drug response to 2-[(5-chloro-2-methoxyphenyl)azo]-1H-imidazole, a supramaximal concentration of noradrenaline was added as a further test for partial agonism. Increases in developed tension to agonist were plotted and individual EC50 values were determined. From these, pEC50 (negative log of the EC50) values were determined for each experiment and where appropriate mean values of these with standard error of the means calculated.

Molecules are shown by their SMILES.

As for `COc1ccc(Cl)cc1N=Nc1ncc[nH]1` [2-[(5-chloro-2-methoxyphenyl)azo]-1H-imidazole], in assay [1], the EC50 is 2000 nM and the Emax was determined as 62.5%. For the same molecule, in assay [1] (human LUT tissue), the “agonist character compared with noradrenaline” value is “full agonist”. In addition, the “agonist character compared with noradrenaline” value in assay [2] (human blood vessels (mesenteric arteries)) is reported as “partial agonist”. In assay [2], the EC50 was 5010 nM and the mean maximum contraction came to 1.1 ± 0.7 g.
Turning to `NC[C@H](O)c1ccc(O)c(O)c1` [Noradrenaline, noradrenaline, reference compound], in assay [1], the EC50 is 3980 nM and the Emax turned out to be 63.7 ± 4.8%. In assay [2], the EC50 was 661 nM and the mean maximum contraction worked out at 4.22 ± 2.21 g. For the same molecule, the “mean further increase in tension” value in assay [2] (noradrenaline 160-210 μM added after the highest concentration of 2-[(5-chloro-2-methoxyphenyl)azo]-1H-imidazole, n=3) was determined as 2.7 ± 0.9 g.

Values taken from patent publication US20040242547A1, “Arylazo-substituted imidazole for the treatment of stress urinary incontinence” (priority 2001, published 2004).
